In US9476099B2 (TRUSTEES OF DARTMOUTH COLLEGE, priority 2012, dated 2016):

Test system: gene promoters in NT2/D1-R1 control and DNMT3B knockdown cells
Assay: Genome-wide promoter methylation analysis, HumanMethylation27 BeadChip (Table 15)
Format: cell-based, human
Settings: sh-ctrl + 5aza
Procedure: DNA methylation analysis was performed in samples in triplicate using the […] […] assay with the HumanMethylation27 BeadChip ([…]) and the BeadChip was scanned on the BeadArray Reader ([…]), according to the manufacturer's instructions. Raw data was normalized and analyzed with Genome Studio software ([…]). The HumanMethylation27 BeadChip assays 27,578 CpGs covering more than 14,000 genes, mostly from promoter regions. […] Hierarchical clustering was performed as stated above. HumanMethylation27 BeadChip data and gene expression microarray data were submitted to NCBI GEO.

## Nc1ncn([C@H]2C[C@H](O)[C@@H](CO)O2)c(=O)n1 [5aza]
  ABCC1 cg20158248 promoter methylation Mean: 0.480
  ACP1 cg27226618 promoter methylation Mean: 0.786
  ADCY4 cg16761581 promoter methylation Mean: 0.609
  ADRA2A cg26926521 promoter methylation Mean: 0.939
  ALDH1A3 cg19224278 promoter methylation Mean: 0.443
  ALKBH4 cg07404418 promoter methylation Mean: 0.458
  ALX4 cg04549333 promoter methylation Mean: 1.136
  ALX4 cg04970352 promoter methylation Mean: 0.964
  ALX4 cg19358442 promoter methylation Mean: 1.126
  ANKRD13C cg19342782 promoter methylation Mean: 0.544
  ANKRD45 cg15883716 promoter methylation Mean: 1.017
  APC cg16970232 promoter methylation Mean: 0.424
  BLOC1S2 cg26610808 promoter methylation Mean: 0.575
  BTBD5 cg00660989 promoter methylation Mean: 0.347
  BTNL8 cg24024214 promoter methylation Mean: 1.068
  C1QL1 cg13818573 promoter methylation Mean: 0.460
  C1orf188 cg15731815 promoter methylation Mean: 0.541
  C10orf107 cg16063112 promoter methylation Mean: 0.354
  C14orf173 cg24404909 promoter methylation Mean: 0.379
  C16orf60 cg17858663 promoter methylation Mean: 0.245
  C19orf4 cg07379574 promoter methylation Mean: 1.078
  C19orf22 cg18022193 promoter methylation Mean: 0.288
  CAMK1G cg27337148 promoter methylation Mean: 1.021
  CD58 cg21039631 promoter methylation Mean: 0.251
  CDKN2B cg04675937 promoter methylation Mean: 0.256
  CDKN2B cg08390209 promoter methylation Mean: 0.280
  CDX1 cg15452204 promoter methylation Mean: 0.595
  CEACAM4 cg10237469 promoter methylation Mean: 0.718
  CEACAM7 cg19623751 promoter methylation Mean: 0.886
  CGI-38 cg13067215 promoter methylation Mean: 0.513
  CHD5 cg00282347 promoter methylation Mean: 1.005
  CHMP2A cg14042128 promoter methylation Mean: 0.541
  COL11A1 cg12884406 promoter methylation Mean: 0.415
  COPS7B cg05422352 promoter methylation Mean: 0.579
  CRSP7 cg24459023 promoter methylation Mean: 0.301
  CSPG3 cg06952310 promoter methylation Mean: 0.480
  CSTF2T cg06712026 promoter methylation Mean: 0.431
  CTAGE1 cg02847216 promoter methylation Mean: 0.955
  CUL3 cg09509863 promoter methylation Mean: 0.411
  CYP4F12 cg25813714 promoter methylation Mean: 0.959
  DCTD cg14892066 promoter methylation Mean: 0.243
  DDEF2 cg22190705 promoter methylation Mean: 0.329
  DEFB118 cg03014957 promoter methylation Mean: 0.690
  DNASE2 cg07955356 promoter methylation Mean: 0.275
  DPH1 cg11516377 promoter methylation Mean: 0.465
  DYRK1B cg18851831 promoter methylation Mean: 1.262
  EIF2B3 cg16604218 promoter methylation Mean: 0.543
  ELSPBP1 cg19404979 promoter methylation Mean: 0.655
  ENOSF1 cg16112050 promoter methylation Mean: 1.028
  EPN3 cg24006361 promoter methylation Mean: 1.019
  EREG cg19308222 promoter methylation Mean: 0.356
  FAM111B cg13864937 promoter methylation Mean: 0.508
  FLJ10726 cg14145762 promoter methylation Mean: 0.436
  FLJ11200 cg09001953 promoter methylation Mean: 0.482
  FLJ23514 cg16404106 promoter methylation Mean: 0.628
  FLRT3 cg23127998 promoter methylation Mean: 0.397
  FLT3LG cg01667384 promoter methylation Mean: 0.249
  FXYD7 cg22392666 promoter methylation Mean: 1.028
  G10 cg02798801 promoter methylation Mean: 0.608
  GABRB2 cg16509658 promoter methylation Mean: 0.219
  GALNT4 cg16606638 promoter methylation Mean: 0.265
  GAS8 cg03634997 promoter methylation Mean: 1.082
  GBX2 cg23095584 promoter methylation Mean: 0.468
  GNAS cg27661264 promoter methylation Mean: 0.565
  GRB10 cg26163537 promoter methylation Mean: 0.312
  GUP1 cg24938727 promoter methylation Mean: 0.640
  HACE1 cg23047681 promoter methylation Mean: 0.204
  HGF cg06745740 promoter methylation Mean: 0.594
  HNRNPG-T cg22062068 promoter methylation Mean: 0.977
  HOXB4 cg25145670 promoter methylation Mean: 0.488
  HRASLS cg08376864 promoter methylation Mean: 0.853
  HYPK cg00480356 promoter methylation Mean: 0.818
  ICAM1 cg08607082 promoter methylation Mean: 0.244
  IFI16 cg07463059 promoter methylation Mean: 0.582
  IFI44 cg07107453 promoter methylation Mean: 0.513
  IFNA2 cg13235447 promoter methylation Mean: 0.697
  IGF2AS cg20792294 promoter methylation Mean: 0.323
  IGFBP5 cg19008649 promoter methylation Mean: 0.370
  IGSF9 cg19111262 promoter methylation Mean: 0.826
  IHH cg17178336 promoter methylation Mean: 0.709
  IL2RG cg01361446 promoter methylation Mean: 1.103
  IL18 cg11304234 promoter methylation Mean: 0.646
  INPP5B cg10784030 promoter methylation Mean: 0.366
  ITGB3BP cg18464559 promoter methylation Mean: 0.168
  KA21 cg23776012 promoter methylation Mean: 0.641
  KCNA3 cg03483626 promoter methylation Mean: 0.326
  KCNAB3 cg14918082 promoter methylation Mean: 0.852
  KCNB2 cg11754206 promoter methylation Mean: 0.551
  KCNK10 cg17671157 promoter methylation Mean: 1.059
  KLK7 cg19953406 promoter methylation Mean: 0.983
  LAMB1 cg10064162 promoter methylation Mean: 0.426
  LDHD cg24429836 promoter methylation Mean: 0.760
  LIG4 cg08216792 promoter methylation Mean: 0.356
  LYNX1 cg24046110 promoter methylation Mean: 0.430
  MC3R cg19226099 promoter methylation Mean: 1.057
  MGC26856 cg07684809 promoter methylation Mean: 0.489
  MLNR cg02620013 promoter methylation Mean: 0.755
  MPHOSPH6 cg16119274 promoter methylation Mean: 0.444
  MSX1 cg03199651 promoter methylation Mean: 0.288
  MYOD1 cg24322623 promoter methylation Mean: 0.931
  NCKIPSD cg04244987 promoter methylation Mean: 0.392
  NDP cg11614809 promoter methylation Mean: 0.756
  NEFH cg16042149 promoter methylation Mean: 1.041
  NEIL2 cg14329976 promoter methylation Mean: 0.360
  NME5 cg13707560 promoter methylation Mean: 1.225
  NME5 cg25507001 promoter methylation Mean: 0.889
  NOC3L cg07270175 promoter methylation Mean: 0.614
  NOX4 cg17063929 promoter methylation Mean: 0.483
  NPAS1 cg09628601 promoter methylation Mean: 0.553
  NRXN1 cg10917619 promoter methylation Mean: 0.867
  OR1N1 cg14598387 promoter methylation Mean: 0.606
  OR10J1 cg15700197 promoter methylation Mean: 0.679
  PACS1 cg01663295 promoter methylation Mean: 0.625
  PCDHB13 cg14592099 promoter methylation Mean: 0.747
  PCDHB13 cg24435562 promoter methylation Mean: 0.441
  PCDHGA12 cg11647681 promoter methylation Mean: 0.936
  PCGF5 cg17001035 promoter methylation Mean: 0.893
  PEPD cg06546607 promoter methylation Mean: 0.266
  PEX5L cg02430692 promoter methylation Mean: 0.511
  PI3 cg02442161 promoter methylation Mean: 0.857
  PIGL cg05310071 promoter methylation Mean: 0.351
  POU3F3 cg20291049 promoter methylation Mean: 0.387
  POU4F2 cg24199834 promoter methylation Mean: 0.287
  PTCH2 cg15329642 promoter methylation Mean: 0.789
  PTPN5 cg17233601 promoter methylation Mean: 0.801
  RASGEF1A cg07871503 promoter methylation Mean: 0.945
  RBPSUHL cg21835643 promoter methylation Mean: 1.018
  REM1 cg12153542 promoter methylation Mean: 0.664
  REM1 cg26299767 promoter methylation Mean: 0.727
  RLN3R1 cg12238343 promoter methylation Mean: 0.732
  RPL39L cg07441272 promoter methylation Mean: 0.691
  RRM2B cg07125123 promoter methylation Mean: 0.370
  RYR1 cg05471297 promoter methylation Mean: 0.480
  S100A12 cg02813121 promoter methylation Mean: 0.941
  SCUBE2 cg01081263 promoter methylation Mean: 0.693
  SCUBE2 cg19237879 promoter methylation Mean: 0.670
  SEMA3E cg08274234 promoter methylation Mean: 0.306
  SEMA6C cg01958916 promoter methylation Mean: 0.267
  SEPN1 cg21187265 promoter methylation Mean: 0.387
